Our source for the inhibition and Ki values is ChEMBL document CHEMBL1127171, “N-2 methylated quaternary derivatives of -carboline-3-carboxylates inhibit acetylcholinesterase in vitro” (Bioorg Med Chem Lett, 1993).

Activity calls are given as the source filed them. The calls are words filed in the database; no cut-off is given here.

In experiment [1] the target is Acetylcholinesterase (Electrophorus electricus) (UniProt O42275). The experiment in a line: The compound was tested in vitro for the inhibition of acetylcholinesterase (AChE) isolated from electric eel at 10e-5 M.
Acetylcholinesterase (Electrophorus electricus), sequence (O42275 24-633 limits assumed): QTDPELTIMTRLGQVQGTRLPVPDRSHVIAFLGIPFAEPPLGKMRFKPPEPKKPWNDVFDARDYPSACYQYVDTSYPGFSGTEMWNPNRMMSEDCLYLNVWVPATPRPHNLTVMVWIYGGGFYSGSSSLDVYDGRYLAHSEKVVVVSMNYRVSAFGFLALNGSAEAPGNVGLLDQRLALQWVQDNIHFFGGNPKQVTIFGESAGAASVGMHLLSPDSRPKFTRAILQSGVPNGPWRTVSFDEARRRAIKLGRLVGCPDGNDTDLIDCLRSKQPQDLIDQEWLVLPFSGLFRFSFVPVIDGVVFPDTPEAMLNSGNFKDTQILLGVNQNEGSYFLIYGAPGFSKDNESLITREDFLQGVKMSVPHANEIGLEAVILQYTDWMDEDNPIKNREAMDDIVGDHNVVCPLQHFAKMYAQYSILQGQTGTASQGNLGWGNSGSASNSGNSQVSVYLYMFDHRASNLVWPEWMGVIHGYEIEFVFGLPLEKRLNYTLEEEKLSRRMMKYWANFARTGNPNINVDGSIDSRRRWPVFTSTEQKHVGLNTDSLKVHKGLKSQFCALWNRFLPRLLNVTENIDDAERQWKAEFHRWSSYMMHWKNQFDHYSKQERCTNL
Experiment [2] shares this target. Description: The compound was tested in vitro for the inhibition of acetylcholinesterase (AChE) isolated from electric eel at 10e-6 M.
Experiment [3] addresses GABA-A receptor; anion channel. The experiment in a line: Displacement of [3H]flunitrazepam from GABA-A benzodiazepine receptor (BZR) of rat brain membranes. The experiment is classed as cell membranes, Membrane. On the technique in general: Displacement assays read how much labelled ligand stays bound in the presence of the test substance.
The target of experiment [4] is Muscarinic acetylcholine receptor. The experiment in a line: The compound was tested in vitro for its binding affinity to muscarinic receptor on rat brain membrane by competitive binding assay using [3H]-QNB.
For experiment [5], the target named is Acetylcholinesterase (Electrophorus electricus) (UniProt O42275). Description: The compound was tested in vitro for the inhibition of acetylcholinesterase (AChE) isolated from electric eel at 10e-5 M; NA means no significant activity at 10e-3 M.
The target is the same in experiment [6]. The experiment in a line: The compound was tested in vitro for the inhibition of acetylcholinesterase (AChE) isolated from electric eel at 10e-6 M; NA means no significant activity at 10e-3 M.
The target of experiment [7] is GABA-A receptor; anion channel. The experiment in a line: Displacement of [3H]flunitrazepam from GABA-A benzodiazepine receptor (BZR) of rat brain membranes (NA = no significant activity). The experiment is classed as cell membranes, Membrane.
In experiment [8] the test system is GABA-A receptor; anion channel. The experiment in a line: Displacement of [3H]flunitrazepam from GABA-A benzodiazepine receptor (BZR) of rat brain membranes (NA = no significant activity at 10e-3 M). The experiment is classed as cell membranes, Membrane.

On to `CCCCOC(=O)c1cc2c(c[n+]1C)[nH]c1ccccc12.[I-]`, for which the inhibition (usually the share of the control response that was lost under treatment) in experiment [1] stood at 88%; in experiment [2] it was 46%. The Ki (commonly the dissociation constant of the complex between target and ligand, obtained from inhibition or displacement) was 4.6 µM in experiment [3] and 0.5 µM in experiment [4].

As to `CC(C)OC(=O)c1cc2c(c[n+]1C)[nH]c1ccccc12.[I-]`, the inhibition in experiment [1] was 62%; in experiment [2], 14%. Besides, the inhibition constant (Ki) in experiment [3] came out at 4.1 µM; in experiment [4], 0.5 µM.

`COC(=O)c1cc2c(cn1)[nH]c1ccccc12` [BETA-CCM]: the inhibition entry in experiment [5] and in experiment [6] was “inactive” each time. Also, the Ki in experiment [7] is 0.003 µM.

On to `CN(C)C(=O)Oc1ccc[n+](C)c1`, for which the inhibition is 93% in experiment [1] and 59% in experiment [2].

Consider `CCCOC(=O)c1cc2c(c[n+]1C)[nH]c1ccccc12.[I-]`, for which the figures for the inhibition in experiment [1] and in experiment [2] were 80.1% and 34.9%, respectively. Also, the Ki in experiment [3] came to 0.6 µM; in experiment [4], 1 µM.

As to `COC(=O)c1cc2c(c[n+]1C)[nH]c1ccccc12`, the inhibition in experiment [1] is 43.1%; in experiment [2], 7.2%. The Ki stood at 1.4 µM in experiment [3] and 3.1 µM in experiment [4].

On to `CCOC(=O)c1cc2c(c[n+]1C)[nH]c1ccccc12.[I-]`, for which the inhibition was 60.9% in experiment [1] and 13.7% in experiment [2]. Moreover, the Ki in experiment [3] worked out at 3.2 µM; in experiment [4], 0.7 µM.

Consider `CNC(=O)c1cc2c(c[n+]1C)[nH]c1ccccc12.[I-]`, for which the results for the inhibition in experiment [1] and in experiment [2] were 7.4% and 1.3%, respectively. Besides, the Ki in experiment [3] was 0.6 µM; in experiment [4], 27 µM.

Turning to `CCOC(=O)c1cc2cc[nH]c2c[n+]1C.[I-]`, the inhibition in experiment [1] worked out at 17%; in experiment [2], 4%. Besides, in experiment [8], the Ki result was “Not Active”.

Take `C[n+]1ccc2c(c1)[nH]c1ccccc12` [NORMELINONINE F]: the inhibition in experiment [1] was 41.2%; in experiment [2], 7.6%. Besides, the Ki result in experiment [8] was “Not Active”.
